Test results as given in ChEMBL document CHEMBL1201862, “PubChem BioAssay data set” (2004).
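Each compound was tested at five concentrations against cells in 96-well plates for 48 hours. The concentration for 50% growth inhibition is given as GI50.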 Active and inactive are the calls of the source. Rule as the data show it: active = GI50 up to about 1.1 µM and inactive = higher.

Legend:
Assay in all cases: inhibition of tumour cell growth, NCI panel, 48 h
[1] = test system: DLD-1
[2] = test system: DMS-114
[3] = test system: HOP-18
[4] = test system: KM-20L2
[5] = test system: LXFL 529
[6] = test system: RXF 631
[7] = test system: SNB-78
[8] = test system: XF498
[9] = test system: DMS-273

Measured: GI50

COc1ccc(/C=C/C(=O)c2sc(NC(=S)NC(=O)c3ccc(Cl)cc3)nc2C)cc1OC
inactive: [1] 49.4 µM | [2] 41.6 µM | [3] 5.89 µM | [4] > 100 µM | [5] 32.2 µM | [6] 48.6 µM | [7] 54.3 µM | [8] 34.8 µM

O=C(c1ccco1)N(C(=S)N1CCN(c2ccccn2)CC1)C1CCCCC1
inactive: [1] > 100 µM | [2] 77.3 µM | [9] > 100 µM | [3] > 100 µM | [4] > 100 µM | [5] > 100 µM | [7] > 100 µM

CCCN(CCCCC(NC(C)=O)C(=O)NCc1ccccc1)C(=O)NCCCl (stereo not drawn)
inactive: [1] > 100 µM | [2] > 100 µM | [9] > 100 µM | [3] > 100 µM | [4] > 100 µM | [5] > 100 µM | [6] > 100 µM | [8] > 100 µM

COc1cc(CNc2nc3ccc(C(F)(F)F)cc3nc2-c2ccccc2)cc(OC)c1OC
inactive: [1] 48.6 µM | [9] 39 µM | [4] > 100 µM | [5] 24.8 µM | [6] > 100 µM | [7] 14.5 µM | [8] 56.1 µM

NC(=S)N/N=C1/C(=O)N(c2ccccc2)C(=O)C1C(=O)Nc1ccccc1 (stereo not drawn)
inactive: [2] > 100 µM | [9] > 100 µM | [3] > 100 µM | [4] > 100 µM | [5] > 100 µM | [6] > 100 µM | [7] > 100 µM | [8] > 100 µM

COc1ccc(C(C#N)NNc2nc(C)cc(O)n2)cc1OC (stereo not drawn)
inactive: [1] > 100 µM | [2] > 100 µM | [9] > 100 µM | [3] > 100 µM | [4] > 100 µM | [5] > 100 µM | [7] > 100 µM

NC(=O)CN(CC(N)=O)C(N)=O
inactive: [2] > 100 µM | [9] > 100 µM | [3] > 100 µM | [4] > 100 µM | [5] > 100 µM | [7] > 100 µM | [8] > 100 µM

CC(=O)N1c2ccccc2C2=CC3C4C(=O)N(c5ccccc5)C(=O)C4C21C1C(=O)N(c2ccccc2)C(=O)C31 (stereo not drawn)
inactive: [1] 23.4 µM | [2] 4.27 µM | [3] 34.4 µM | [4] 30.3 µM | [5] 81.3 µM | [7] 84.5 µM | [8] 10.9 µM

O=[N+]([O-])CCc1cccc([N+](=O)[O-])c1
inactive: [1] > 100 µM | [2] > 100 µM | [9] > 100 µM | [3] > 100 µM | [4] > 100 µM | [5] > 100 µM | [7] > 100 µM

CC(=O)O[C@H]1CCC2[C@@H]3CCC4Nc5c(cnn5-c5ccccc5)C[C@]4(C)C3CC[C@@]21C (stereo partly drawn)
inactive: [1] 32.7 µM | [2] 11.7 µM | [9] 3.18 µM | [3] 31.8 µM | [4] 8 µM | [5] 12.6 µM | [6] 14.9 µM | [7] 14.4 µM | [8] 6.52 µM

COc1cc2cc3c4c(cc(OC)c(OC)c4c2cc1OC)CCN3C(=O)CCC(=O)NCCCN(C)C
inactive: [1] 16.9 µM | [2] 27.8 µM | [9] 73.1 µM | [3] > 100 µM | [4] 24.4 µM | [5] 61 µM | [7] > 100 µM | [8] 24.9 µM

COc1ccc2c(c1)C(CCN)C(=O)N2 (stereo not drawn)
inactive: [1] > 100 µM | [2] > 100 µM | [9] > 100 µM | [3] > 100 µM | [4] > 100 µM | [5] > 100 µM | [6] > 100 µM | [7] > 100 µM | [8] > 100 µM

CN1CC(=O)N2Cc3ccccc3-n3cccc3C2C1 (stereo not drawn)
inactive: [1] > 100 µM | [9] > 100 µM | [3] 4.92 µM | [4] > 100 µM | [5] > 100 µM | [6] > 100 µM | [7] > 100 µM | [8] > 100 µM

COc1ccc(C2=C(Cl)c3cc(OC)c(OC)cc3C2Cl)cc1OC (stereo not drawn)
inactive: [1] 15.3 µM | [9] 14.3 µM | [3] 21.7 µM | [4] 15.6 µM | [6] 19.1 µM | [7] 20.7 µM | [8] 16 µM

CC1CSC(=S)N1C(=O)N1C(=S)SCC1C (stereo not drawn)
inactive: [1] 19.3 µM | [2] 38.3 µM | [9] 20.1 µM | [3] 53.6 µM | [4] 38.7 µM | [5] 33.4 µM | [7] 43.2 µM

CN(Cc1ccccc1)c1nc(=[N+](C)C)ss1
inactive: [1] > 100 µM | [2] 20.3 µM | [9] 60.7 µM | [3] > 100 µM | [4] > 100 µM | [5] 71.6 µM | [6] 67.5 µM | [7] > 100 µM | [8] > 100 µM

C1CSCCSCCCS[C@@H]2CCCCC2SC1 (stereo partly drawn)
inactive: [1] > 100 µM | [2] 28.2 µM | [9] > 100 µM | [3] > 100 µM | [4] > 100 µM | [5] > 100 µM | [7] > 100 µM

CC(=O)OCC(OC(C)=O)C(OC(C)=O)C(OC(C)=O)C(=O)CNn1c(-c2ccccc2)nc2ccc(Br)cc2c1=O (stereo not drawn)
inactive: [2] > 100 µM | [9] > 100 µM | [4] > 100 µM | [5] > 100 µM | [7] > 100 µM | [8] 21.2 µM

C=C(c1ccccc1)[C@@]1(O)CC[C@@H]1N(CC#N)Cc1ccccc1
inactive: [1] 19.6 µM | [2] 17 µM | [9] 20.5 µM | [3] 14.6 µM | [4] 63.1 µM | [5] 15.9 µM | [7] 31.2 µM

CCc1ccccc1-n1c2nc(=O)n(C)c(=O)c-2nc2ccccc21
inactive: [1] 16.3 µM | [2] 3.83 µM | [9] 8.71 µM | [3] 11.9 µM | [4] 4.08 µM | [5] 11.1 µM | [7] 16.9 µM | [8] 10.3 µM

Cc1ccc2c(c1)CN(C(=O)CCC(=O)OCc1ccccc1)c1ccc(C)cc1CN2C(=O)CCC(=O)OCc1ccccc1
inactive: [1] > 100 µM | [2] > 100 µM | [9] > 100 µM | [3] > 100 µM | [4] > 100 µM | [5] > 100 µM | [7] > 100 µM
